# What was measured:
# CDK 7 = CDK 7 (Homo sapiens, UniProt P50613); settings: cited from earlier work
# CDK 9 = CDK 9 (Homo sapiens, UniProt P50750); settings: cited from earlier work
# Apolipoprotein A1 = test: SELDI-TOF-MS plasma proteomic profile, 28 kDa biomarker cluster; type: in vivo, human; settings: plasma fraction 4, SAX chip pH9, 16 Phase 1b patients
# Protocol: (§1) All samples were stored at −80° C. in aliquots.
# (§2) Proteins were then detected with the ProteinChip® Reader.
# PNUTS = test: QPCR of PNUTS in whole blood (PAXgene) exposed in vitro to CYC202; type: cell-based, human; settings: whole blood of several donors exposed in vitro to 30 μM CYC202 for […]
# Protocol: In addition, RNA from whole blood samples was analysed by QPCR. Blood from volunteers was collected into Vacutainer Heparin CPT tubes. […] The blood was then transferred into PAXgene tubes (PreAnalytiX), inverted several times, and placed at −20° C. after an initial incubation of 2 hours at room temperature to allow lysis of the cells. When ready for analysis, blood was left to thaw at room temperature for approximately 2 hours, and then processed according to the manufacturer's instructions. The optional DNase digestion step was included. RNA samples were quantified and then used directly in QPCR assays.
# In addition, where the expression levels of housekeeper genes have been measured in these samples, the data has been normalized using a derivative of this formula: 2^ΔCttarget/2^ΔCthousekeeper Results
# Blood from volunteers was collected into Vacutainer Heparin CPT tubes at Hawkhill Medical Centre, Dundee and treated as described above in Example 2. […]
# Blood that had been stored for various lengths of time and under various storage conditions was left to thaw at room temperature for approximately 2 hours, and then processed according to the manufacturer's instructions. […] RNA samples were quantified and then used directly in QPCR assays.
# A549 cells = test: Affymetrix microarray gene expression in CYC202 treated A549 cells; type: cell-based, human; settings: 45 and 75 micromolar
# Protocol: HT29 and A549 cells, which are derived from human colon and lung tumours respectively, were seeded at approximately 20% confluency, which was equivalent to 1.5×10^6 cells per 10 cm plate in DMEM containing 10% FCS, so that they were actively proliferating upon treatment with the compound the following day.
# […]. RNA was extracted from the A549 cells used in the microarray experiment using TRIZOL reagent (Invitrogen) according to the manufacturer's instructions. For all other cell lines, total RNA was extracted from the cultures with the RNeasy Midi Kit (Qiagen, Hilden, Germany) according to the manufacturer's instructions. […] RNA was eluted in RNase-free water and quantified using RiboGreen (Molecular Probes, Leiden, The Netherlands). […]
# RNA extracted from A549 cells was used with the Hu Gene FL Cartridge while RNA from HT-29 cells and PBMC was loaded onto Hu Gene U133A Cartridges. […] The biotinylated cRNA was detected with an antibody amplification step using normal goat IgG as blocking reagent, final concentration 0.1 mg/ml (Sigma) and biotinylated anti-streptavidin antibody (goat), final concentration […] (Vector Laboratories). […] The readings from the quantitative scanning were analysed by the Affymetrix Gene Expression Analysis Software. […]
# Data from the Affymetrix Chips were analysed at individual time points following CYC202 treatment.
# cell cycle progression = settings: cited from earlier work
# 7 kDa biomarker cluster = test: SELDI-TOF-MS plasma proteomic profile, 7 kDa biomarker cluster; type: in vivo, human; settings: 16 Phase 1b patients, last day of treatment
# Protocol: as §1, §2
# [1] = Pharmacokinetic analysis of breast cancer patient 02-2-01 (08); type: in vivo, human; settings: 600 mg b.i.d. oral, Day 1
# Protocol: Effects on PNUTS and other target genes in vitro has been observed with concentrations of 7.5-15 μM for 1.5-3 hours, which is within the range represented here.
# Chain of CDK 9 (P50750 whole entry, species assumed): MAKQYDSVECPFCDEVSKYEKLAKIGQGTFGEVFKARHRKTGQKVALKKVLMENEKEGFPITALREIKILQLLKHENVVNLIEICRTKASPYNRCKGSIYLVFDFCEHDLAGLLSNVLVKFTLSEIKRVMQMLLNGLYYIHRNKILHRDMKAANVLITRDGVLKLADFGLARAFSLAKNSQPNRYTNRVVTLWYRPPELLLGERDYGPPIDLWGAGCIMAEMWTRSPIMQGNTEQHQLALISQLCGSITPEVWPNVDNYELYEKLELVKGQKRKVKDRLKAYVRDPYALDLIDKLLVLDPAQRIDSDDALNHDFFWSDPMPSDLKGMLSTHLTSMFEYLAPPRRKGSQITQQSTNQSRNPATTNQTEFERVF
# Chain of CDK 9 (O60563 whole entry partner, species assumed): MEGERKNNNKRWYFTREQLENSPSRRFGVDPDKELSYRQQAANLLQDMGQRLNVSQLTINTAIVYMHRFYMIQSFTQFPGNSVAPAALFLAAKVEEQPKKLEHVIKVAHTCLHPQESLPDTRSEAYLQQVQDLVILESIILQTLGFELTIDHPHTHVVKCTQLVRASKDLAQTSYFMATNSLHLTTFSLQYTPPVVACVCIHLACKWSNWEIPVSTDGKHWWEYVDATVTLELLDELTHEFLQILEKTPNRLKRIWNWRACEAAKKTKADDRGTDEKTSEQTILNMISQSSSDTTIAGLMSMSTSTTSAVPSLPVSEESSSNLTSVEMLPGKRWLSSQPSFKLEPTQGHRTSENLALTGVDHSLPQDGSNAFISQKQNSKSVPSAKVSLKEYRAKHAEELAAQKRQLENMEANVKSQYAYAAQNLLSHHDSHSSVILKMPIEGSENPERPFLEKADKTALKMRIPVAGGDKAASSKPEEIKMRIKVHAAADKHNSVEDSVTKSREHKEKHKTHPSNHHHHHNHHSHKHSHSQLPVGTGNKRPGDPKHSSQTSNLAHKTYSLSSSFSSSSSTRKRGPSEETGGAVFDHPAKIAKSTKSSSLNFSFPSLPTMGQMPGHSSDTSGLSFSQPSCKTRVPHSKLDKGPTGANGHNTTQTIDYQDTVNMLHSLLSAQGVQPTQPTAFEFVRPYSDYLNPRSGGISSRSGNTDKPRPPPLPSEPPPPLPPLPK
# Chain of CDK 7 (P50613 whole entry, species assumed): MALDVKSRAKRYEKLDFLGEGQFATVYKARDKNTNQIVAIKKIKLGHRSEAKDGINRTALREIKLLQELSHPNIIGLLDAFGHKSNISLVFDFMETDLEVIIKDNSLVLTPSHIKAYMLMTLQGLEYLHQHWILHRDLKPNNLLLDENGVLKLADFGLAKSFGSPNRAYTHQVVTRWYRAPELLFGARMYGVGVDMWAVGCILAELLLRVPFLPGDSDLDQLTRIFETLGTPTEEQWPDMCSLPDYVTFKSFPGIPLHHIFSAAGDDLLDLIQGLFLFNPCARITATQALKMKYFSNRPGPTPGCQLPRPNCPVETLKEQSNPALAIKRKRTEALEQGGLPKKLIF
# Chain of CDK 7 (P51946 whole entry partner, species assumed): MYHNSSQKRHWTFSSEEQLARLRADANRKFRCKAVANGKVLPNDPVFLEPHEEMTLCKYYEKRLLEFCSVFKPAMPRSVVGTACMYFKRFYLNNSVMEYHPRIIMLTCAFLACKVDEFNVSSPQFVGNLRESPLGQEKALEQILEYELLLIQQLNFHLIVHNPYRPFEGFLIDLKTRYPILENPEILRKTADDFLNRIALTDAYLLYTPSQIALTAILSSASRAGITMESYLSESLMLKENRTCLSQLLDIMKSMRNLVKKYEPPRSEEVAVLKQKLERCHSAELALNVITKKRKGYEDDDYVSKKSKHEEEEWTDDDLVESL
structure (smiles),measurement,setting,value
"CC[C@H](CO)Nc1nc(NCc2ccccc2)c2ncn(C(C)C)c2n1 [CYC202, 2-(R)-(1-ethyl-2-hydroxyethylamino)-6-benzylamino-9-isopropylpurine]",inhibition of CDK 7,CDK 7,inhibit
same,inhibition of CDK 9,CDK 9,inhibit
same,"normalised intensity M/Z 28126, after treatment group","Apolipoprotein A1; last day of treatment, before treatment 32.0+/−9.6, p=0.0058",20.4+/−9.9
same,"normalised intensity M/Z 27923, after treatment group","Apolipoprotein A1; last day of treatment, before treatment 50.6+/−11.8, p=0.00097",31.8+/−13.7
same,change of marker M/Z 28799 after vs before treatment,Apolipoprotein A1; p=0.19,not deemed to be statistically significant
same,change of marker M/Z 28292 after vs before treatment,Apolipoprotein A1; p=0.95,not deemed to be statistically significant
same,expression of PNUTS normalised to housekeeper (HPRT),PNUTS,reproducibly down-regulated
same,"gene expression (microarray, genes of FIG. 9/11)",A549 cells; 2 hr,significantly down regulated
same,"gene expression (microarray, genes of FIG. 10/12)",A549 cells; 4 hr,significantly down regulated
same,effect on cell cycle progression,cell cycle progression,block cell cycle progression in late G1/early S and in M-phase
same,"normalised intensity M/Z 6984, after treatment group","7 kDa biomarker cluster; neat plasma, CM10 chip, other group 3.1+/−1.2, p=0.0000014",42.2+/−11.8
same,"normalised intensity M/Z 6787, after treatment group","7 kDa biomarker cluster; neat plasma, CM10 chip, other group 5.6+/−1.9, p=0.0000014",27.5+/−10.4
same,"normalised intensity M/Z 6998, after treatment group","7 kDa biomarker cluster; plasma fraction 6, H50 chip, other group 2.1+/−0.7, p=0.0000031",42.0+/−9.1
same,"normalised intensity M/Z 6799, after treatment group","7 kDa biomarker cluster; plasma fraction 6, H50 chip, other group 2.9+/−1.2, p=0.0000031",29.1+/−8.1
same,plasma levels of CYC202,[1],maintained efficacious levels of CYC202 over several hours
